Legend:
L. monocytogenes EGD-e = assay: Agar diffusion test (ADT) of cell lysates, zone of growth inhibition, with PAS staining for glycosylation; type: cell-based, Listeria monocytogenes; details: ADT against L. monocytogenes, cleavage buffer treated cell lysate, glycosylation by PAS staining
L. monocytogenes = assay: Determination of the MIC against L. monocytogenes (96-well broth dilution); type: cell-based, Listeria monocytogenes; details: Minimum Inhibitory Concentration against L. monocytogenes, 18 h at 37° C.
Procedure: One colony of an indicator strain (L. monocytogenes) was picked from an NB agar plate, inoculated to liquid NB medium and grown at 37° C., in a shaking incubator until OD^600 nm of 0.5 was reached. Then, the culture was diluted with NB medium and serial twofold dilutions with NB medium were made. Hundred microliters of Enterocin 96 solution (1 mg/ml in MQ) were transferred to a 96-well plate and mixed with 100 μl previously prepared cell suspension of sensitive strain. Similarly, positive control Nisin (1 mg/ml in MQ, Sigma Cat. # N5764), 100 μl mixture of NB medium with the Listeria, and negative controls (media alone, untreated indicator strain). 100 μL mixture of NB medium were prepared and dispersed in the same 96-well plates. The plate was incubated for 18 h at 37° C. in a shaking incubator. After incubation, the growth of bacteria was evaluated visually and by a plate reader. The analyses were performed in triplicate. Similarly, MIC of other variants of Enterocin 96 (neo-glycocins) was determined using above described method.

human red blood cells = assay: Hemolytic assay; type: cell-based
Procedure: Samples were prepared within 3 h of performing the assay. Neo-glycocins stock solutions of 1 mg/ml were prepared by dissolving the neo-glycocins in PBS (10 mM phosphate buffer, pH 7.4); the samples were mixed by inversion to ensure neo-glycocins were completely dissolved in PBS. To prepare the Human Red Blood Cell (hRBC) solution, blood was collected from healthy individual and RBCs were isolated following standard procedure. Informed consent was acquired from all donors and this work was carried out in compliance with the ethical committee guidelines of CSIR-IMTECH with IEC NO SUIEC/14/03.
2 ml whole blood from healthy individual was centrifuged for 30 mins at 1000 rpm(4° C.). Layer of RBCs was collected and diluted with equal volume of 1×PBS and mixture was centrifuged three times for 10 mins at 1000 rpm, 4° C. To prepare 4% RBC solution, 1 ml of RBC were mixed with 24 ml 1×PBS. To examine the hemolysis property of neo-glycocins (75-1000 μM), 20 μl of freshly prepared neo-glycocins solution was mixed with 180 μl of freshly prepared hRBC solution and was placed at 37° C. for 1 h. A total of 20 μl of PBS buffer only and 20 μl of Triton X-100 1% (w/v) were mixed with 180 μl of hRBC solution as negative and positive controls, respectively. After 1 h of incubation, all samples were centrifuged at 2500 rpm for 10 min. A total of 100 μl of supernatant was collected, and the release of hemoglobin was monitored by measuring the absorbance of the supernatant at 570 nm with a Multiskan Go plate-reader (Thermo Scientific). Hemolysis percentage for each sample was calculated by dividing sample's absorbance on positive control absorbance (complete hemolysis) multiplied by 100.

THP-1 cells = assay: Cytotoxicity MTT reduction assay; type: cell-based; details: 50% cell death, THP-1 cells, MTT, 18-24 hours
Procedure: (§1) Cytotoxicity of Enterocin 96 and its variants (neo-glycocins) against THP-1 cells and anti-cancer potential against HepG2 cells was measured by the conventional MTT reduction assay. HepG2 and THP-1 cells (1×10^4 cells/well) were seeded into the 96-well plate and cultured at 37° C. in an atmosphere of 5% CO2 to allow them to adhere overnight. After 24 hours, the cells were exposed to Enterocin 96 and its variants (neo-glycocins) at various concentrations (75-1000 μM) for 18-24 hours. After the incubation period, 150 μl media and the suspended cells were discarded and washed with 200 μl PBS. After that, 200 μl of fresh media was added followed by 20 μl of MTT (5 mg/mL) into each well in the 96-well plate and incubated for 4 h in CO2 incubator. One hundred and fifty microlitres of medium with MTT was removed from every well and 100 μl DMSO was added to each well to solubilize the formazan crystal by incubating for 20 min in CO2 incubator. Finally, the plates were read at 570 nm by using Multiskan Go plate-reader (Thermo Scientific) and then percentage of cell viability was determined.

HepG2 cells = assay: Anti-cancer MTT reduction assay; type: cell-based; details: 50% cell (cancerous) death, HepG2 cells, MTT, 18-24 hours
Procedure: as §1

## SEQ ID NO: 53: variant of Enterocin 96: MASKRDCNLMKACCAGLAVTYAIHSLLNRLGGDSSDPAGCNDIVRKYCK (Variant of Enterocin 96)
L. monocytogenes EGD-e
  Zone of inhibition as well as glycosylation positive: positive
L. monocytogenes EGD-e; listed as Q17L
  Zone of inhibition as well as glycosylation positive: Yes

## SEQ ID NO: 50: variant of Enterocin 96: MASKRDCNLMKACCAGQAVTYAIHSLLNRLGGDSSDPAGSNDIVRKYCK (Variant of Enterocin 96)
L. monocytogenes EGD-e
  Zone of inhibition as well as glycosylation positive: positive
L. monocytogenes EGD-e; listed as C40S
  Zone of inhibition as well as glycosylation positive: Yes

## variant of Enterocin 96: MASKRDCNLMKACCAGQAVTYAIHSLLNRLGGDSSGPAGCNDIVRKYCK (Variant of Enterocin 96) [SEQ ID NO: 42]
L. monocytogenes EGD-e
  Zone of inhibition as well as glycosylation positive: positive
L. monocytogenes EGD-e; listed as D36G
  Zone of inhibition as well as glycosylation positive: Yes
L. monocytogenes
  Anti-bacterial activity (MIC in μM): >0.54 µM
Human red blood cells
  Hemolysis (MHC in μM): 600 µM
THP-1 cells
  IC50: 279.3 ± 0.0769 µM
HepG2 cells
  IC50: 204.2 ± 0.134 µM

## variant of Enterocin 96: MASKACCAGQAVTYAIHSLLNRLGGDSSDPAGCNDIVRKYCK (Variant of Enteriocin 96) [SEQ ID NO: 41]
L. monocytogenes EGD-e
  Zone of inhibition as well as glycosylation positive: positive
L. monocytogenes EGD-e; listed as ECT
  Zone of inhibition as well as glycosylation positive: Yes
L. monocytogenes
  Anti-bacterial activity (MIC in μM): >0.54 µM
Human red blood cells
  Hemolysis (MHC in μM): 600 µM
THP-1 cells
  IC50: 309.4 ± 0.388 µM
HepG2 cells
  IC50: 167 ± 0.122 µM

## variant of Enterocin 96: MASKRDCNLMKACCAEQAVTYAIQSLLNRLGGDSSDPAGCNDIVRKYCK (Variant of Enterocin 96) [SEQ ID NO: 45]
L. monocytogenes EGD-e
  Zone of inhibition as well as glycosylation positive: positive
L. monocytogenes EGD-e; listed as G16E-H24L
  Zone of inhibition as well as glycosylation positive: Yes
L. monocytogenes
  Anti-bacterial activity (MIC in μM): >0.54 µM
Human red blood cells
  Hemolysis (MHC in μM): 600 µM
THP-1 cells
  IC50: 167.3 ± 1.39 µM
HepG2 cells
  IC50: 222.3 ± 0.11 µM

## SEQ ID NO: 59: variant of Enterocin 96: MASKRDCNLMKACCAGQAVTYAIHSLLNRLGGDSSEPAGCNDIVRKYCK (Variant of Enterocin 96)
L. monocytogenes EGD-e
  Zone of inhibition as well as glycosylation positive: neither showed any bioactivity nor glycosylation

## SEQ ID NO: 56: variant of Enterocin 96: MASKRDCNLMKACCAGQAVTYAIHSLLNRLGGDFSDPAGCNDIVRKYCK (Variant of Enterocin 96)
L. monocytogenes EGD-e
  Zone of inhibition as well as glycosylation positive: neither showed any bioactivity nor glycosylation

## SEQ ID NO: 51: variant of Enterocin 96: MASKHDCNLMKACCAGQAVTYAIHSLLNRLGGDSSDPAGCNDIVRKYCK (Variant of Enterocin 96)
L. monocytogenes EGD-e
  Zone of inhibition as well as glycosylation positive: positive
L. monocytogenes EGD-e; listed as R5H
  Zone of inhibition as well as glycosylation positive: Yes

## SEQ ID NO: 46: variant of Enterocin 96: MASKRDCNLMKACCAEQAVTYAIHSLLNRLGGDSSDPAGCNDIVRKYCK (Variant of Enterocin 96)
L. monocytogenes EGD-e
  Zone of inhibition as well as glycosylation positive: positive

## SEQ ID NO: 57: variant of Enterocin 96: MASKRDCNLMKACCAGQAVTYAIHSLLNRLGGDSSDWRCK (Variant of Enterocin 96)
L. monocytogenes EGD-e
  Zone of inhibition as well as glycosylation positive: neither showed any bioactivity nor glycosylation

## SEQ ID NO: 49: variant of Enterocin 96: MASKRDCNLMKACCAGHAVTYAIHSLLKRLGGDSSDPAGCNDIVRKYCK (Variant of Enterocin 96)
L. monocytogenes EGD-e
  Zone of inhibition as well as glycosylation positive: positive
L. monocytogenes EGD-e; listed as Q17H-N28K
  Zone of inhibition as well as glycosylation positive: Yes

## SEQ ID NO: 52: variant of Enterocin 96: MASKRDCNLMKACCAGQAVTYGIHSLLNRLGGDSSDPAGCNDIVRKYCK (Variant of Enterocin 96)
L. monocytogenes EGD-e
  Zone of inhibition as well as glycosylation positive: positive
L. monocytogenes EGD-e; listed as A22G
  Zone of inhibition as well as glycosylation positive: Yes

## SEQ ID NO: 43: variant of Enterocin 96: MASKRDCNLMKACCAGQAVTYAIQSLLNRLGGDSSDPAGCNDIVRKYCK (Variant of Enterocin 96)
L. monocytogenes EGD-e
  Zone of inhibition as well as glycosylation positive: positive
L. monocytogenes EGD-e; listed as H24Q
  Zone of inhibition as well as glycosylation positive: Yes

## SEQ ID NO: 48: variant of Enterocin 96: MASKRDCNLMKACCAGQAVTYAIHSLLYRLGGDSSDPAGCNDIVRKYCK (Variant of Enterocin 96)
L. monocytogenes EGD-e
  Zone of inhibition as well as glycosylation positive: positive
L. monocytogenes EGD-e; listed as N28Y
  Zone of inhibition as well as glycosylation positive: Yes

## SEQ ID NO: 58: variant of Enterocin 96: MASKRDCNLMKACCAGQAVTYAIHSLLNRLGGDSGDPAGCNDIVRKYCK (Variant of Enterocin 96)
L. monocytogenes EGD-e
  Zone of inhibition as well as glycosylation positive: neither showed any bioactivity nor glycosylation

## SEQ ID NO: 55: variant of Enterocin 96: MASKRDCNLMKACCAGQAVTYAIHSLLNRLGGNSSDPAGCNDIVRKYCK (Variant of Enterocin 96)
L. monocytogenes EGD-e
  Zone of inhibition as well as glycosylation positive: neither showed any bioactivity nor glycosylation

## SEQ ID NO: 44: variant of Enterocin 96: MASKRDCNLMKARCAGQAVTYAIHSLLNRLGGDSSDPAGCNDIVRKYCK (Variant of Enterocin 96)
L. monocytogenes EGD-e
  Zone of inhibition as well as glycosylation positive: positive
L. monocytogenes EGD-e; listed as C13R
  Zone of inhibition as well as glycosylation positive: Yes

## SEQ ID NO: 47: variant of Enterocin 96: MASKRDCNLMKACCAGQAVTYAIHSLLNRLGGDSSVPAGCNDIVRKYCK (Variant of Enterocin 96)
L. monocytogenes EGD-e
  Zone of inhibition as well as glycosylation positive: positive
L. monocytogenes EGD-e; listed as D36V
  Zone of inhibition as well as glycosylation positive: Yes

## SEQ ID NO: 54: variant of Enterocin 96: MASKRDCNLMKACCAGQAVTYAIHSLLNRLGGDPSDPAGCNDIVRKYCK (Variant of Enterocin 96)
L. monocytogenes EGD-e
  Zone of inhibition as well as glycosylation positive: neither showed any bioactivity nor glycosylation

Reference: patent publication US12241058B2, “Recombinant microbial system for directed evolution of glycocins and method of preparation thereof” (COUNCIL OF SCIENTIFIC & INDUSTRIAL RESEARCH, priority 2018, dated 2025)
